Laboratory results: ChEMBL document CHEMBL4715849, “Recent Progress in the Discovery of Antifungal Agents Targeting the Cell Wall” (J Med Chem, 2020)
pIC50: −log10 of the molar value. ≈ marks a conversion by molar mass, not a printed value. Numbered stars: 1 amine (or outer) side, 2 acyl side, 3 side chain; on linkers, the order of the positions; unused ones are H or OH. Bridge positions count the residues as written; N and C are the ends. Square brackets hold non-standard residues; d marks the D form. Peptide text beside a SMILES is read from it. * marks the point of attachment. hTyr(3S-OH,4S-OH,3'-OSO3H) = N[C@H](C(=O)O)[C@H](O)[C@@H](O)c1ccc(O)c(OS(=O)(=O)O)c1; pTerphenylCO(4''-OnC5H11) = CCCCCOc1ccc(-c2ccc(-c3ccc(C(=O)*)cc3)cc2)cc1; Orn(4R-OH,5R-OH) = O=C([C@H](C[C@@H](O)[C@@H](O)N[*:3])N[*:1])[*:2]; hTyr(3S-OH,4S-OH) = N[C@H](C(=O)O)[C@H](O)[C@@H](O)c1ccc(O)cc1; Pro(3S-OH,4S-Me) = C[C@H]1CN[C@H](C(=O)O)[C@H]1O; X1 = CCCCCOc1ccc(-c2cc(-c3ccc(C(=O)*)cc3)no2)cc1; Gln(3R-OH) = NC(=O)C[C@@H](O)[C@H](N)C(=O)O; Hyp = O=C(O)[C@@H]1C[C@@H](O)CN1

Tests used:
Aspergillus fumigatus [1] = assay: Antifungal activity against Aspergillus fumigatus clinical isolate 293 infected in Hartley guinea pig model of invasive pulmonary aspergillosis assessed as pig median survival time at 10 mg/kg, sc administered until day 8 starting from day 1 post infection; type: functional, Af293; details: time 8 day
Aspergillus fumigatus [2] = assay: Antifungal activity against Aspergillus fumigatus clinical isolate 293 infected in Hartley guinea pig model of invasive pulmonary aspergillosis assessed as percent survival of pig at 10 mg/kg, sc administered until day 8 starting from day 1 post infection; type: functional; details: Af293, sc, 192 h, time 8 day
Candida albicans [3] = assay: Antifungal activity against Candida albicans ATCC 10231 by CLSI-based serial dilution method; type: functional
Nakaseomyces glabratus [4] = assay: Antifungal activity against Candida glabrata DSM 11226 by CLSI-based serial dilution method; type: functional
[5] = Antifungal activity against Candida arborea KKP319 by CLSI-based serial dilution method; type: functional
Pichia kudriavzevii [6] = assay: Antifungal activity against Candida krusei DSM 6128 by CLSI-based serial dilution method; type: functional
Candida albicans [7] = assay: Antifungal activity against Candida albicans Ca2323/ORF6.945 by CLSI method; type: functional
Candida albicans [8] = assay: Antifungal activity against Candida albicans Ca1055 by CLSI method; type: functional
Candida parapsilosis [9] = assay: Antifungal activity against Candida parapsilosis ATCC22019 by CLSI method; type: functional; details: Lodderomyces parapsilosis
Clavispora lusitaniae = assay: Antifungal activity against Candida lusitaniae MY1396 by CLSI method; type: functional
Nakaseomyces glabratus [10] = assay: Antifungal activity against Candida glabrata MY1381 by CLSI method; type: functional
Candida albicans [11] = assay: Antifungal activity against Candida albicans K335 by agar incorporation method; type: functional
Candida albicans [12] = assay: Antifungal activity against Candida albicans K341 by agar incorporation method; type: functional
Candida albicans [13] = assay: Antifungal activity against Candida albicans K1082 by agar incorporation method; type: functional
Candida albicans [14] = assay: Antifungal activity against Candida albicans K1133 by agar incorporation method; type: functional
[15] = tested on: Meyerozyma guilliermondii; assay: Antifungal activity against Candida guilliermondii K334 by agar incorporation method; type: functional
Candida tropicalis [16] = assay: Antifungal activity against Candida tropicalis K337 by agar incorporation method; type: functional
Candida tropicalis [17] = assay: Antifungal activity against Candida tropicalis K1155 by agar incorporation method; type: functional
Candida parapsilosis [18] = assay: Antifungal activity against Candida parapsilosis K332 by agar incorporation method; type: functional; details: Lodderomyces parapsilosis
Candida parapsilosis [19] = assay: Antifungal activity against Candida parapsilosis K1154 by agar incorporation method; type: functional; details: Lodderomyces parapsilosis
Cyberlindnera jadinii = assay: Antifungal activity against Candida utilis K482 by agar incorporation method; type: functional; details: Williopsis jadinii
Pichia kudriavzevii [20] = assay: Antifungal activity against Candida krusei K1153 by agar incorporation method; type: functional
[21] = Inhibition of Beta-1,3-glucan synthase in wild type Schizosaccharomyces pombe
[22] = Inhibition of Beta-1,3-glucan synthase in Schizosaccharomyces pombe pbr1-8
[23] = Inhibition of Beta-1,3-glucan synthase in Schizosaccharomyces pombe pbr1-6
[24] = Half life in Beagle dog at 1.4 mg/kg, iv measured up to 72 hrs by LC-MS/MS analysis; type: ADME, organism-based, Canis lupus familiaris; details: in vivo
[25] = Half life in human at 50 mg by liquid chromatography-tandem mass spectrometry method; type: ADME; details: in vivo
[26] = Elimination half life life in iv dosed human; details: in vivo
[27] = Inhibition of Candida albicans GFA1 using D-Fru6P and L-glutamine as substrate incubated for 30 mins by Elson-Morgan method
Aspergillus fumigatus [28] = assay: Antifungal activity against Aspergillus fumigatus MF5668 by CLSI method; type: functional
Candida albicans [29] = assay: Antifungal activity against Candida albicans A9540 infected in iv dosed ICR mouse assessed as protection against fungus-induced lethal infection dosed once immediately following fungal challenge and measured on day 20 post infection; type: functional; details: 480 h, time 20 day, read-out: PD50
Candida albicans [30] = assay: Antifungal activity against Candida albicans CY1002 infected in iv dosed ICR mouse administered as single dose measured on day 7; type: functional; details: 168 h, time 7 day
[31] = Inhibition of Candida albicans glucosamine-6-phosphate synthase by Elson-Morgan method
Candida albicans [32] = assay: Antifungal activity against Candida albicans ATCC 10261 incubated for 24 hrs by serial dilution method; type: functional
Candida albicans [33] = assay: Antifungal activity against Candida albicans ATCC 26278 incubated for 24 hrs by serial dilution method; type: functional

Q: For `COc1cc(C[C@@H](O)[C@@H]2NC(=O)[C@@H]3C[C@@H](O)CN3C(=O)[C@H]([C@@H](C)O)NC(=O)[C@H](NC[C@H]3CC[C@H](c4nnc(-c5ccc(N6CCC(OC)(C7CCCCC7)CC6)cc5)s4)CC3)C[C@@H](O)CNC(=O)[C@@H]3[C@@H](O)[C@@H](C)CN3C(=O)[C@H]([C@H](O)CCNC(CO)CO)NC2=O)ccc1O`, which Time (Aspergillus fumigatus [1]) is on record?
A: 9.5 days

Q: And the survival at 10 mg/kg (Aspergillus fumigatus [2])?
A: 31.2%

Q: For `COS(=O)(=O)C[C@H]1OC(O)[C@H](N)[C@@H](O)[C@@H]1O` (stereo not given in full), which MIC (Candida albicans [3]) is on record?
A: > 4000 µg/mL

Q: And the MIC (Nakaseomyces glabratus [4])?
A: > 4000 µg/mL

Q: What about the MIC [5] of the same compound?
A: > 4000 µg/mL

Q: And the MIC (Pichia kudriavzevii [6])?
A: > 4000 µg/mL

Q: Which MIC (Candida albicans [7]) does the source give for `COc1ccc(NC(=O)COc2cccc(OCC(C)C)c2)cc1` here?
A: 4 µg/mL (≈ 12.1 µM)

Q: What about the MIC (Candida albicans [8]) of the same compound?
A: 4 µg/mL (≈ 12.1 µM)

Q: And the MIC (Candida parapsilosis [9])?
A: 2 µg/mL (≈ 6.07 µM)

Q: And the MIC (Clavispora lusitaniae)?
A: 4 µg/mL (≈ 12.1 µM)

Q: What about the MIC (Nakaseomyces glabratus [10]) of the same compound?
A: 4 µg/mL (≈ 12.1 µM)

Q: For `CCC(O)/C=C/C=C\C=C\C(=O)OC[C@H]1O[C@@H](O[C@H]2[C@H](OC(=O)/C=C/C=C/C[C@H](O)/C(C)=C/C=C/CC[C@@H](C)CC)[C@@H](O)[C@@]3(OCc4cc(O)cc(O)c43)O[C@@H]2CO)[C@H](O)[C@@H](O)[C@H]1O` (stereo not given in full), which MIC (Candida albicans [11]) is on record?
A: 0.1 µg/mL (≈ 0.111 µM)

Q: And the MIC (Candida albicans [12])?
A: 0.1 µg/mL (≈ 0.111 µM)

Q: And the MIC (Candida albicans [13])?
A: 0.1 µg/mL (≈ 0.111 µM)

Q: What about the MIC (Candida albicans [14]) of the same compound?
A: 0.1 µg/mL (≈ 0.111 µM)

Q: And the MIC [15]?
A: 0.1 µg/mL (≈ 0.111 µM)

Q: What about the MIC (Candida tropicalis [16]) of the same compound?
A: 0.1 µg/mL (≈ 0.111 µM)

Q: And the MIC (Candida tropicalis [17])?
A: 0.1 µg/mL (≈ 0.111 µM)

Q: And the MIC (Candida parapsilosis [18])?
A: 0.1 µg/mL (≈ 0.111 µM)

Q: What about the MIC (Candida parapsilosis [19]) of the same compound?
A: 0.1 µg/mL (≈ 0.111 µM)

Q: What about the MIC (Cyberlindnera jadinii) of the same compound?
A: 0.1 µg/mL (≈ 0.111 µM)

Q: And the MIC (Pichia kudriavzevii [20])?
A: 0.1 µg/mL (≈ 0.111 µM)

Q: What about the IC50 [21] of the same compound?
A: 0.02 µg/mL (≈ 0.0222 µM)

Q: What about the IC50 [22] of the same compound?
A: > 250 µg/mL

Q: What about the IC50 [23] of the same compound?
A: > 250 µg/mL

Q: What does the source list for `CC(=O)[O-].CCCCCOc1ccc(-c2ccc(-c3ccc(C(=O)N[C@H]4C[C@@H](O)[C@@H](NCC[N+](C)(C)C)NC(=O)[C@@H]5[C@@H](O)[C@@H](C)CN5C(=O)[C@H]([C@@H](C)O)NC(=O)[C@H]([C@H](O)[C@@H](O)c5ccc(O)cc5)NC(=O)[C@@H]5C[C@@H](O)CN5C(=O)[C@H]([C@@H](C)O)NC4=O)cc3)cc2)cc1`?
A: half-life [24]: 53.1 h; half-life [25]: > 130 h

Q: Which half-life [26] does the source give for `CCCCCOc1ccc(-c2cc(-c3ccc(C(=O)N[C@H]4C[C@@H](O)[C@@H](O)NC(=O)[C@@H]5[C@@H](O)[C@@H](C)CN5C(=O)[C@H]([C@H](O)CC(N)=O)NC(=O)[C@H]([C@H](O)[C@@H](O)c5ccc(O)c(OS(=O)(=O)O)c5)NC(=O)[C@@H]5C[C@@H](O)CN5C(=O)[C@H]([C@@H](C)O)NC4=O)cc3)no2)cc1` [MICAFUNGIN] (X1-[Orn(4R-OH,5R-OH)]T[Hyp][hTyr(3S-OH,4S-OH,3'-OSO3H)][Gln(3R-OH)][Pro(3S-OH,4S-Me)]; lactam 1-C) here?
A: 10 h

Q: With `CC(=O)N[C@@H](CO)[C@@H](O)[C@H](O)[C@H](O)CS(=O)(=O)O` as the compound, how does the pIC50 [27] read?
A: < 2.30

Q: What about the MIC (Candida albicans [3]) of the same compound?
A: 1000 µg/mL (≈ 3480 µM)

Q: For `Nc1ccccc1C(=O)OCC#CCOC(=O)c1ccccc1N`, which MIC (Candida albicans [7]) is on record?
A: 4 µg/mL (≈ 12.3 µM)

Q: And the MIC (Candida albicans [8])?
A: 4 µg/mL (≈ 12.3 µM)

Q: And the MIC (Candida parapsilosis [9])?
A: 2 µg/mL (≈ 6.17 µM)

Q: And the MIC (Aspergillus fumigatus [28])?
A: 4 µg/mL (≈ 12.3 µM)

Q: For `CN[C@@H]1[C@H](O[C@@H]2OC[C@@H](O)[C@H](O)[C@H]2O)[C@@H](O)[C@H](O[C@H]2c3cc(C)c(C(=O)N[C@H](C)C(=O)O)c(O)c3-c3c(cc4c(c3O)C(=O)c3cc(OC)cc(O)c3C4=O)[C@@H]2O)O[C@@H]1C` [PRADIMICIN A], which ED50 (Candida albicans [29]) is on record?
A: 8.9 mg/kg

Q: Which half-life [26] does the source give for `CCCCCOc1ccc(-c2ccc(-c3ccc(C(=O)N[C@H]4C[C@@H](O)[C@@H](O)NC(=O)[C@@H]5[C@@H](O)[C@@H](C)CN5C(=O)[C@H]([C@@H](C)O)NC(=O)[C@H]([C@H](O)[C@@H](O)c5ccc(O)cc5)NC(=O)[C@@H]5C[C@@H](O)CN5C(=O)[C@H]([C@@H](C)O)NC4=O)cc3)cc2)cc1` [ANIDULAFUNGIN] ({pTerphenylCO(4''-OnC5H11)}-[Orn(4R-OH,5R-OH)]T[Hyp][hTyr(3S-OH,4S-OH)]T[Pro(3S-OH,4S-Me)]; lactam 1-C) here?
A: 24 h

Q: What about the ED50 (Candida albicans [30]) of the same compound?
A: 0.22 mg/kg

Q: Which results are given for `N[C@@H](CO)[C@@H](O)[C@H](O)[C@H](O)COP(=O)(O)O`?
A: pIC50 [31]: 3.64; MIC (Candida albicans [32]): 5000 µg/mL (≈ 19100 µM); MIC (Candida albicans [33]): 5000 µg/mL (≈ 19100 µM)
